Test results from patent publication US20070225255A1, “Use of Mitochondrially Targeted Antioxidant in the Treatment of Liver Diseases and Epithelial Cancers” (priority 2004, published 2007).

Assays:
[1] = system: human cell lines intoxicated with DDC or BSO; experiment: ROS formation in cell lines intoxicated with DDC or BSO; assay type: cell-based; details: simultaneous treatment at concentrations corresponding to EC50
Source text: Another simple set of experiments employing hepatoma cell lines (e.g. HepG2 or Hep3B), the SNU-398 hepatocellular carcinoma-derived cell line (ATCC No. CRL-2233, LGC Promochem, Germany), the HUH-7 human carcinoma-derived cell line (Japanese collection of Research Biosources JCRB 0403) or the Tib-73 mouse embryonic liver cell line (ATCC TIB 73=BNL CL2 derived from BAL/c mouse, MD, USA) allows measurement of ROS production in these cells upon DDC intoxication.
To determine ROS production in for example hepatoma cell lines a standard experimental protocol according to Example 8 is applied. Tested hepatoma cells are grown in 96-well plates in culture medium (DMEM supplemented with 10% FCS, Gibco) to 80% confluency, subsequently washed with HBSS and incubated in the dark with DHE (10-50 μM) for 10 minutes at 37° C. Cells are then washed twice with Hank's balanced salt solution (HBSS, Gibco) to remove excess dye. Fluorescence is monitored in a fluorescence microscope (Olympus, Hamburg, Germany).
Alternatively, the generation of ROS is measured by using the fluoroprobe 5-(and-6)-chloromethyl-2′,7′-dichlorodihydrofluorescein diacetate acetyl ester (CM-H2DCFDA, Molecular Probes, Goettingen, Germany) which is converted to fluorescent dichlorofluorescien (DCF; Djordjevic T. et al., 2004, Antioxidants & Redox Signaling, 6: 713-720). To determine DCF fluorescence in a microplate reader (Tecan, Crailsheim, Germany), cells (e.g. HepG2, Hep3B or SNU-398) are grown in 96-well plates to 80% confluency. […] After several washes with HBSS to remove excess dye, fluorescence is monitored by using 480 nm excitation and 540 nm emission wavelength. DCF fluorescence is standardized to the number of viable cells using the Alamar Blue test according to the manufacturer's instructions (Biosource, Nivelles, Belgium). […] The absorbance is then measured at the wavelength of 580 μm.

[2] = system: DDC intoxicated mice; experiment: Short term (3 days) DDC intoxication, liver histology (H&E); details: DDC 3 days
Method: Liver samples prepared according to Example 1 are used for simple histologic staining such as with haematoxylin and eosin (Luna L. G., 1968, Manual of Histologic staining methods of the Armed Forces Institute of Pathology, 3rd edition. McGraw Hill, New York). Furthermore, single-label immunohistochemistry or double-label immunoflourescence microscopy is performed to detect MBs in tested animals.
In another set of experiments 3 to 12 mg/kg of MitoQ dissolved in 1% of DMSO in PBS is given intraperitoneally simultaneously to DDC intoxicated mice for 3 days and compared to control animals (positive control group represents DDC intoxicated mice whereas negative control represents non DDC intoxicated but vehicle injected animals).

[3] = system: DDC intoxicated mice; experiment: Long term (10 weeks) DDC intoxication, liver histology (cell ballooning, Mallory bodies); details: then 1 week without DDC with two injections of MitoQ
Method: Furthermore, single-label immunohistochemistry or double-label immunoflourescence microscopy is performed to detect MBs in tested animals.
In long term experiments by using mice intoxicated with DDC (for 8-10 weeks) the presence (or absence) of cell ballooning and/or Mallory bodies (MBs) in liver samples of treated animals is determined and compared to the control groups of animals.
In another set of experiments, after 10 weeks of DDC intoxication tested animals receive i.p. injections of MitoQ (1.25 mg/kg) twice within subsequent 7 days (day 1 and day 4 of the corresponding week), and are analysed by routine histology (standard haematoxylin/eosin staining according to Luna L. G., 1968, Manual of Histologic staining methods of the Armed Forces Institute of Pathology, 3rd edition. McGraw Hill, New York).

[4] = system: DDC intoxicated mice; experiment: Tocopherol quinone content in isolated mouse liver mitochondria; assay type: in vivo; details: DDC intoxicated mice with or without MitoQ
Method: In order to evaluate oxidative stress in control versus DDC-intoxicated mice with or without treatment by using antioxidants according to the invention, tocopherol quinone (TQ) content (Gille L. et al., 2004, Biochemic. Pharmacology, 68: 373-381) in isolated liver mitochondria (all tested animal groups prepared according to protocols in Example 3) is performed. The mouse liver mitochondria are prepared according to modified protocol from Staniek K. and Nohl H., 1999, Biochem. et Biophys. Acta, 1413: 70-80; Mela L. and Sietz S., 1979, Methods in Enzymology, Academic Press Inc.: 39-46, and TQ content is normalized to several parameters including protein and cytochrome concentrations and activity tests of complex I (NADH dehydrogenase), complex II (succinate dehydrogenase), complex III (cytochrome bcl) and complex IV (cytochrome oxidase).
A method for rat heart mitochondria (Staniek K. and Nohl H., 1999, Biochem. et Biophys. Acta, 1413: 70-80; Mela L. and Sietz S., 1979, Methods in Enzymology, Academic Press Inc.: 39-46) is adapted for mouse liver (ca. 10% weight compared to rat liver) isolated from various animal groups according to Example 3. The isolation of liver is performed at 4° C. […] The protein concentration is measured with the Biuret method (BSA as standard, at least […] protein needed for double determination) with expected yield of 3 to 6 mg. […]

[5] = fed to mice on a long term basis; cited from earlier work
[6] = system: DDC- or GF intoxicated mice; experiment: Toxic memory effect upon reintoxication with DDC or GF after recovery; assay type: in vivo, mouse; details: 10 weeks DDC or GF, 4 weeks recovery, reexposure 24 to 72 hours with simultaneous treatment
Source text: Mouse livers respond to DDC- or GF intoxication first with ballooning of hepatocytes and formation of a denser keratin IF network. After around 6 weeks of intoxication, ballooned hepatocytes show a reduced density of the keratin IF and early MBs can be observed as fine granules associated with the keratin IF network. Continuation of intoxication leads to the appearance of large MBs typically located in the perinuclear cytoplasmic region. […] Upon cessation of intoxication, MBs disappear within several weeks. At 4 weeks of recovery from intoxication, there are groups of hepatocytes devoid of cytoplasmic keratin filaments but still containing small remnants of MBs at the cell periphery in association with desmosomes. If such mice are reexposed to DDC or GF numerous MBs reappear within 24 to 72 hours (Stumptner C. et al., 2001, J. Hepatol., 34: 665-675). This enhanced formation of MBs upon reintoxication was interpreted—in analogy to allergic reactions—as a toxic memory effect.
In another set of experiments, 10 week-intoxication of mice with DDC or GF is followed by 4 weeks of recovery.

[7] = system: HUH-7 cells; experiment: ROS production induced by Antimycin A, lucigenin chemiluminescence assay; assay type: cell-based, human; details: Antimycin A 0, 1 and 5 μM, MitoQ 0 to 1000 nmol, 3 hours at 37° C.
Method: HUH-7 cells are incubated in 6 well plates and stimulated with Antimycin A in concentration 0-25 μM (0, 1 and 5 μM) simultaneously with or without MitoQ in concentration range from 0 to 1000 nmol dissolved in DMEM (Gibco) for 3 hours at 37° C. The light reaction between superoxide and lucigenin is detected. X axis represents a concentration range of MitoQ [nM] whereas y axis the chemiluminescence signal expressed as average counts per minute [cpm] after normalization to cell number determined by cell counter.
Another approach allows measurement of the ROS production induced by antimycin A or rotenone by using lucigenin chemiluminescence assay (experimental set up as in Example 9) in e.g. HUH-7 or Tib-73. HUH-7 cells are incubated in 6 well plates and stimulated by using antimycin A in concentration 0-25 μM (preferably 0, 1 and 5 μM) simultaneously with or without MitoQ (or MitoS) in concentration range from 0 to 1000 nmol dissolved in DMEM (Gibco) for 3 hours at 37° C. […] The light reaction between superoxide and lucigenin is detected using a chemiluminescence reader (Lumistar, BMG laboratories, Germany). The chemiluminescence signal is expressed as average counts per minute and normalized to cell number as determined by cell counter (Casy Technology Instrument, Schärfe-System, Germany).

Substance: MitoQ
- ROS formation [1]: significant reduction in ROS formation
- inflammatory cells around the portal vein ([2]; simultaneous MitoQ 6 mg/kg): Absence of inflammatory cells
- morphology of the hepatocytes (size and morphology of nuclei, structure of cytoplasm) ([2]; simultaneous MitoQ 6 mg/kg): normal
- liver architecture (strands of hepatocytes bordered by sinusoids) ([2]; simultaneous MitoQ in PBS/1% DMSO, 6 mg/kg): normal architecture again is visible
- accumulation of protoporphyrin in bile ducts [3]: markedly reduced
- tocopherol quinone (TQ) levels in liver mitochondria [4]: elevated TQ levels in DDC intoxicated mice when compared to controls and mice treated with MitoQ
- concentrations within the brain, heart, liver, and muscle [5]: potentially therapeutically effective concentrations
- safety of feeding [5]: fed safely
- toxic memory effect (reappearance of MBs) [6]: reduced or abolished
- ROS formation (lucigenin chemiluminescence) [7]: significant reduction in ROS formation
